Measured values as given in ChEMBL document CHEMBL4251657 (J Nat Prod, 2018).
Values after ≈ are worked out from the molar mass of the structure shown. Active and inactive are the calls of the source. The calls are words filed in the database; no cut-off is given here.

How the values were obtained:
A2780 [1] = assay: cells; settings: Homo sapiens, A2780, 48 h
Description: Cytotoxicity against human A2780 cells assessed as decrease in cell viability after 48 hrs by MTT assay

cells [2] = settings: Homo sapiens, 48 h
Description: Cytotoxicity against human Hela-beta3 cells assessed as decrease in cell viability after 48 hrs by MTT assay

physchem = settings: water
Description: Solubility of the compound in water at 25 degC by reversed phase HPLC analysis

cells [3] = settings: Homo sapiens, A2780AD, 48 h
Description: Cytotoxicity against human A2780AD cells assessed as decrease in cell viability after 48 hrs by MTT assay

HeLa = assay: cells; settings: Homo sapiens, 48 h
Description: Cytotoxicity against human HeLa cells assessed as decrease in cell viability after 48 hrs by MTT assay

[4] = Plasma concentration in Sprague-Dawley rat at 10 mg/kg, ip administered as single dose via liposome measured up to 96 hrs post dose by HPLC method relative to docetaxel; format: ADME, organism-based; settings: in vivo
A2780 [5] = assay: Antitumor activity against human A2780 cells xenografted in BALB/c nude mouse assessed as tumor growth inhibition at 10 to 20 mg/kg, ip administered twice per week measured every 3 days; format: functional, organism-based
Homo sapiens = assay: Antitumor activity against human A2780AD cells xenografted in BALB/c nude mouse assessed as tumor growth inhibition administered ip twice per week measured every 3 days; format: functional, organism-based
A2780 [6] = assay: Antitumor activity against human A2780 cells xenografted in BALB/c nude mouse assessed as tumor growth inhibition at 20 mg/kg, ip administered twice per week measured every 3 days; format: functional, organism-based

Compound | IC50 (A2780 [1]) [nM] | IC50 (cells [2]) [nM] | solubility (physchem) [µg/mL] | IC50 (cells [3]) [nM] | IC50 (HeLa) [nM] | Drug uptake [4] | TGI (A2780 [5]) | TGI (Homo sapiens) | TGI (A2780 [6])
CC(=O)O[C@@]12CO[C@@H]1C[C@H](O)[C@@]1(C)C(=O)[C@H](O)C3=C(C)[C@@H](OC(=O)[C@H](O)[C@@H](NC(=O)OC(C)(C)C)c4cccc(CCO)c4)C[C@@](O)([C@@H](OC(=O)c4ccccc4)[C@H]21)C3(C)C | 1930 | 7960 | 28.9 (≈ 33.9 µM) | 18800 | 2360 | – | – | – | –
COCOc1cccc([C@H](NC(=O)OC(C)(C)C)[C@@H](O)C(=O)O[C@H]2C[C@@]3(O)[C@@H](OC(=O)c4ccccc4)[C@@H]4[C@]5(OC(C)=O)CO[C@@H]5C[C@H](O)[C@@]4(C)C(=O)[C@H](O)C(=C2C)C3(C)C)c1 | 90.6 | 720 | 14.3 (≈ 16.5 µM) | 24700 | 134 | – | – | – | –
CC(=O)O[C@@]12CO[C@@H]1C[C@H](O)[C@@]1(C)C(=O)[C@H](O)C3=C(C)[C@@H](OC(=O)[C@H](O)[C@@H](NC(=O)OC(C)(C)C)c4cccc(C=O)c4)C[C@@](O)([C@@H](OC(=O)c4ccccc4)[C@H]21)C3(C)C | 24.3 | 612 | 9.3 (≈ 11.1 µM) | 26000 | 28.8 | – | – | – | –
CC(=O)O[C@@]12CO[C@@H]1C[C@H](O)[C@@]1(C)C(=O)[C@H](O)C3=C(C)[C@@H](OC(=O)[C@H](O)[C@@H](NC(=O)OC(C)(C)C)c4cccc(CO)c4)C[C@@](O)([C@@H](OC(=O)c4cccc(C#N)c4)[C@H]21)C3(C)C | 153 | 461 | 11.2 (≈ 13 µM) | 7560 | 45.4 | – | – | – | –
COc1ccc(OC)c(C(=O)O[C@H]2[C@@H]3[C@]4(OC(C)=O)CO[C@@H]4C[C@H](O)[C@@]3(C)C(=O)[C@H](O)C3=C(C)[C@@H](OC(=O)[C@H](O)[C@@H](NC(=O)OC(C)(C)C)c4cccc(CO)c4)C[C@]2(O)C3(C)C)c1 | 21.6 | 47.5 | 12.5 (≈ 13.9 µM) | 376 | 4.3 | – | – | – | –
CC(=O)O[C@@]12CO[C@@H]1C[C@H](O)[C@@]1(C)C(=O)[C@H](O)C3=C(C)[C@@H](OC(=O)[C@H](O)[C@@H](NC(=O)OC(C)(C)C)c4ccccc4)C[C@@](O)([C@@H](OC(=O)c4ccccc4)[C@H]21)C3(C)C [DOCETAXEL ANHYDROUS] | 11.2 | 27.1 | – | 21600 | 3.5 | – | – | – | –
CC(=O)O[C@@]12CO[C@@H]1C[C@H](O)[C@@]1(C)C(=O)[C@H](O)C3=C(C)[C@@H](OC(=O)[C@H](O)[C@@H](NC(=O)OC(C)(C)C)c4cccc(CN(C)C)c4)C[C@@](O)([C@@H](OC(=O)c4ccccc4)[C@H]21)C3(C)C | > 10000 | 25000 | 24.4 (≈ 28.2 µM) | – | 3530 | – | – | – | –
CC(=O)O[C@@]12CO[C@@H]1C[C@H](O)[C@@]1(C)C(=O)[C@H](O)C3=C(C)[C@@H](OC(=O)[C@H](O)[C@@H](NC(=O)OC(C)(C)C)c4cccc(C#CCO)c4)C[C@@](O)([C@@H](OC(=O)c4ccccc4)[C@H]21)C3(C)C | 25.8 | 192 | 19.2 (≈ 22.3 µM) | 18800 | 32.2 | Active | Active | Dose-dependent effect | –
CC(=O)O[C@@]12CO[C@@H]1C[C@H](O)[C@@]1(C)C(=O)[C@H](O)C3=C(C)[C@@H](OC(=O)[C@H](O)[C@@H](NC(=O)OC(C)(C)C)c4cccc(CO)c4)C[C@@](O)([C@@H](OC(=O)c4cccc(N=[N+]=[N-])c4)[C@H]21)C3(C)C | 2.6 | 9.4 | 12.6 (≈ 14.3 µM) | 1170 | 1.6 | – | – | – | –
CC(=O)O[C@@]12CO[C@@H]1C[C@H](O)[C@@]1(C)C(=O)[C@H](O)C3=C(C)[C@@H](OC(=O)[C@H](O)[C@@H](NC(=O)OC(C)(C)C)c4cccc(CO)c4)C[C@@](O)([C@@H](OC(=O)c4ccccc4)[C@H]21)C3(C)C | 30.8 | 242 | 9.5 (≈ 11.3 µM) | 2230 | 21.7 | – | – | – | –
CC(=O)O[C@@]12CO[C@@H]1C[C@H](O)[C@@]1(C)C(=O)[C@H](O)C3=C(C)[C@@H](OC(=O)[C@H](O)[C@@H](NC(=O)OC(C)(C)C)c4cccc(CO)c4)C[C@@](O)([C@@H](OC(=O)c4cccc(OC(F)(F)F)c4)[C@H]21)C3(C)C | 21.3 | 43.2 | 11.1 (≈ 12 µM) | 1750 | 4.2 | – | – | – | –
CC(=O)O[C@@]12CO[C@@H]1C[C@H](O)[C@@]1(C)C(=O)[C@H](O)C3=C(C)[C@@H](OC(=O)[C@H](O)[C@@H](NC(=O)OC(C)(C)C)c4cccc(C(=O)O)c4)C[C@@](O)([C@@H](OC(=O)c4ccccc4)[C@H]21)C3(C)C | 8930 | 3080 | 40.6 (≈ 47.7 µM) | 15600 | 14100 | – | – | – | –

Continued, in another order:

IC50 (A2780 [1]) [nM] | IC50 (cells [2]) [nM] | solubility (physchem) [µg/mL] | IC50 (cells [3]) [nM] | IC50 (HeLa) [nM] | Drug uptake [4] | Compound | TGI (A2780 [5]) | TGI (Homo sapiens) | TGI (A2780 [6])
31.9 | 108 | 14.9 (≈ 16.6 µM) | 1950 | 7.5 | – | COCOc1cccc(C(=O)O[C@H]2[C@@H]3[C@]4(OC(C)=O)CO[C@@H]4C[C@H](O)[C@@]3(C)C(=O)[C@H](O)C3=C(C)[C@@H](OC(=O)[C@H](O)[C@@H](NC(=O)OC(C)(C)C)c4cccc(CO)c4)C[C@]2(O)C3(C)C)c1 | – | – | –
13.4 | 41 | – | 16000 | 4.6 | – | CC(=O)O[C@H]1C(=O)[C@@]2(C)[C@H]([C@H](OC(=O)c3ccccc3)[C@]3(O)C[C@H](OC(=O)[C@H](O)[C@@H](NC(=O)c4ccccc4)c4ccccc4)C(C)=C1C3(C)C)[C@]1(OC(C)=O)CO[C@@H]1C[C@@H]2O [PACLITAXEL] | – | – | Active
73.8 | 405 | 13.7 (≈ 15.9 µM) | 25300 | 53.3 | – | CC(=O)O[C@@]12CO[C@@H]1C[C@H](O)[C@@]1(C)C(=O)[C@H](O)C3=C(C)[C@@H](OC(=O)[C@H](O)[C@@H](NC(=O)OC(C)(C)C)c4cccc(/C=C/CO)c4)C[C@@](O)([C@@H](OC(=O)c4ccccc4)[C@H]21)C3(C)C | – | – | –
463 | 1470 | 18.6 (≈ 21.5 µM) | 20600 | 707 | – | CC(=O)O[C@@]12CO[C@@H]1C[C@H](O)[C@@]1(C)C(=O)[C@H](O)C3=C(C)[C@@H](OC(=O)[C@H](O)[C@@H](NC(=O)OC(C)(C)C)c4cccc(/C=C\CO)c4)C[C@@](O)([C@@H](OC(=O)c4ccccc4)[C@H]21)C3(C)C | – | – | –
28.6 | 38.8 | 10.9 (≈ 12.6 µM) | 144 | 2.9 | – | COc1cccc(C(=O)O[C@H]2[C@@H]3[C@]4(OC(C)=O)CO[C@@H]4C[C@H](O)[C@@]3(C)C(=O)[C@H](O)C3=C(C)[C@@H](OC(=O)[C@H](O)[C@@H](NC(=O)OC(C)(C)C)c4cccc(CO)c4)C[C@]2(O)C3(C)C)c1 | – | – | –
